# Tests used:
# mice = settings: mouse, in vivo
# Protocol: In the present study, mice were handled two times a day, 5 min each before start of behavioral experiments. Object recognition was assessed in a circle opaque chamber with the diameter of 38.5 cm in a regular lit room. Each mouse was habituated to the chamber for 5 min since day 3. During the training phase, the mouse was allowed to explore two identical objects for 5 min. The mouse was then returned to its home cage for a retention period of 1 h. The mouse was reintroduced to the training context and presented with one familiar object and one novel object for 5 min. Movement and interaction with the objects was recorded with a video camera that was mounted above the chamber. The exploratory behavior and mouse activity was analyzed blindly by a person with a good training and the software EthoVision, XT v11.5 provided by the Noldus Information Tech Inc., (Leesburg VA, USA). Exploratory behavior was defined as sniffing, licking, or touching the object while facing the object. Memory was assessed by measuring the novelty preference ratio (i.e., the ratio of time spent exploring the novel object to the time spent exploring both objects). […] Total interaction time with both objects was compared between groups to determine whether the treatments affected locomotor activity or exploration during the testing phase.
# Specifically, we studied whether the use of the inhibitory peptide with etomidate prevented etomidate-induced memory deficits (attributed to the increase in cell surface expression of α5GABAA receptors). […] Saline and 35% propylene glycol were used as the vehicle control. NOR was conducted the next day.
# [1] = molecular target: T1, α1 subunit containing GABAA receptors (Mus musculus, UniProt P62812); assay: Co-IP and WB, gephyrin and α1 subunit containing GABAA receptors; assay type: binding; settings: immunoprecipitates from Example 1, hippocampal tissue
# T1 construct: α1 and α2 subunit containing GABAA receptors in the hippocampal tissue; from tissue; host or cells: hippocampus of adult mice
# T1 sequence (P62812 28-455): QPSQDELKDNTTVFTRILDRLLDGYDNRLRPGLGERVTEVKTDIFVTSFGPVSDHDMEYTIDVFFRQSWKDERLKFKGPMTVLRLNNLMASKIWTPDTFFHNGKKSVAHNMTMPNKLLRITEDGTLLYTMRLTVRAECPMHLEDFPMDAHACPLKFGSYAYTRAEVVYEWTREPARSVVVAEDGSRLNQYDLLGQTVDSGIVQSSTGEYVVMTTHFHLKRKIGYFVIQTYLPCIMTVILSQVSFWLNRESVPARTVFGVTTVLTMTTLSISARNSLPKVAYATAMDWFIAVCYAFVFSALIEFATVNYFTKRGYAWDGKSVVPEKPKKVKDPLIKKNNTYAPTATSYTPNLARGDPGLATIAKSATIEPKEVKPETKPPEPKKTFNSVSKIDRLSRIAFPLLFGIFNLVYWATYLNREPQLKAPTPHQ
# [2] = system: etomidate-induced memory deficits in mice; assay: Novel object recognition task, prevention paradigm; assay type: in vivo, mouse; settings: Etom 8 mg/kg plus α5 peptide 20 mg/kg i.p., NOR next day
# Description: The novel object recognition task involves the presentation of two identical objects for visual inspection (in the case of humans and non-human primates) and exploration in the case of rodents. After a delay, one of the original objects is presented together with a new (novel) object. Humans and animals normally spend time more time looking at (or in the case of mice, exploring) the novel object. Indeed, the test relies on the innate preference of humans and animals for novelty. The inspection or interaction time differs only if the familiar object is recognized. Otherwise, the subject spends an equal amount of time inspecting both objects. […]
# In the present study, mice were handled two times a day, 5 min each before start of behavioral experiments. Object recognition was assessed in a circle opaque chamber with the diameter of 38.5 cm in a regular lit room. […] Movement and interaction with the objects was recorded with a video camera that was mounted above the chamber. The exploratory behavior and mouse activity was analyzed blindly by a person with a good training and the software EthoVision, XT v11.5 provided by the Noldus Information Tech Inc., (Leesburg VA, USA). […] Memory was assessed by measuring the novelty preference ratio (i.e., the ratio of time spent exploring the novel object to the time spent exploring both objects). […]
# α5GABAA receptors = assay: Surface biotinylation assay of α5 subunit in ex vivo brain slices after i.p. peptide; set-up: species or system mouse; settings: peptide 20 mg/kg, etomidate-treated adult male mice
# Protocol: We next asked whether injection of inhibitory peptide, when administered to mice in vivo by I.P. injection, reduced the level of α5GABAA receptors expressed in the hippocampus. To test whether the peptide reduces α5GABAA receptor cell-surface expression in vivo, we took advantage of a mouse model that we developed recently (Zurek, et al., 2014), in which up-regulation of α5GABAA receptor cell surface expression causes memory deficits. Adult mice (22-25 g) were treated with etomidate (8 mg/kg, i.p.), and sacrificed 24 hrs later according to a protocol approved by the Animal Care Committee of the University of Toronto. The hippocampi were collected and subject to experiments. We first measured the level of radixin phosphorylation, because radixin phosphorylation is required for the recruitment of α5GABAA receptors to extrasynaptic sites of the neurons (Loebrich et al., 2006; Hausrat et al., 2015). The antibody against threonine at 564 of radixin, which is specific for radixin phosphorylation involving α5GABAA receptor extra-synaptic trafficking, was used for these studies (Choii et al., 2015; Hausrat et al., 2015). […] We next examined whether the inhibitory peptide prevented α5GABAA receptor from trafficking to surface membrane in vivo by studying ex vivo brain slices. […]
# [3] = system: α5GABAA receptor cell-surface expression; assay: Receptor cell-surface ELISA assay in cultured hippocampal neurons; assay type: cell-based, mouse; settings: neurons treated with peptide without exposure to etomidate
# [4] = molecular target: T2, α2 subunit containing GABAA receptors (Mus musculus, UniProt P26048); assay: Co-IP and WB, gephyrin and α2 subunit containing GABAA receptors; assay type: binding; settings: immunoprecipitates from Example 1, hippocampal tissue
# T2 construct: α1 and α2 subunit containing GABAA receptors in the hippocampal tissue; from tissue; host or cells: hippocampus of adult mice
# T2 sequence (P26048 29-451): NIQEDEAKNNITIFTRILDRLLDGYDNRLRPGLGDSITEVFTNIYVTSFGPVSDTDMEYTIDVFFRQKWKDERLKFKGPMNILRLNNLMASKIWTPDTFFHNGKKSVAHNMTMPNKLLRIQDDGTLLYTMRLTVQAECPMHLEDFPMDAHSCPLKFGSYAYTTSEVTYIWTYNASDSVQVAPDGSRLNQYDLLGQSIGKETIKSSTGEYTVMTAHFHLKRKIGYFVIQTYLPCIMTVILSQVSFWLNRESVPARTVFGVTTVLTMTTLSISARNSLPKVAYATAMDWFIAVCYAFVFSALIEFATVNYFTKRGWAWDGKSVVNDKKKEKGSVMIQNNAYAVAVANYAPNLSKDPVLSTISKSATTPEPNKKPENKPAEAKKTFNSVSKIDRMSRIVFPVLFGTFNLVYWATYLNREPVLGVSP
sequence,measurement,setting,value
NYFTKRGWAWDGKKAL [inhibitory peptide],Body Angle State Bent,mice,6 ± 3 s
same,Body Angle State Bent (%),mice,2%
same,Body Angle State Straight,mice,269 ± 45 s
same,Body Angle State Straight (%),mice,98%
same,Body Elongation State Contracted,mice,48 ± 66 s
same,Body Elongation State Contracted (%),mice,16%
same,Body Elongation State Normal,mice,252 ± 66 s
same,Body Elongation State Normal (%),mice,84%
same,Body Elongation State Stretched,mice,0 s
same,Rotation Frequency,mice,5.5 ± 1.7
same,effects on α1 subunit containing GABAA receptors (gephyrin interaction),[1],did not have any effects
same,"etomidate-induced memory deficits (NOR, prevention)",[2],could prevent
same,expression of α5GABAA receptors on the cell surface,α5GABAA receptors,selectively prevented
same,α5GABAA total protein production,α5GABAA receptors,did not change
same,"baseline α5GABAA receptors expression, total or cell surface level",[3],does not alter
same,effects on α2 subunit containing GABAA receptors (gephyrin interaction),[4],did not have any effects

# Source: patent US12054562B2, “Cell-permeable inhibitory agent and methods of use thereof in treatment of cognitive and mood disorders” (priority 2015, dated 2024)
